From the supplement of paper PMC10307832

Legend:
Experiment in all cases: relative viability (nuclei count vs DMSO), 5 days (fraction); higher = more cells survive
[1] = compound: CNC(=O)c1cc(Oc2ccc(NC(=O)Nc3ccc(Cl)c(C(F)(F)F)c3)cc2)ccn1 [Sorafenib] + NC(=O)Nc1cc(-c2cccc(F)c2)sc1C(=O)N[C@H]1CCCNC1 [AZD7762] (partner 0.2 µM)
Outline: (§1)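 Each reported value is a median over duplicate plates. It expresses relative viability: treated-well nuclei count divided by vehicle-well nuclei count. Lung cancer cell lines in 1536-well plates were dosed by pin tool a day after seeding, alone with one drug or with a fixed anchor-drug dose plus five library-drug doses (not always all listed) in √10 steps, and nuclei were counted after 5 days.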

[2] = compound: CNC(=O)c1cc(Oc2ccc(NC(=O)Nc3ccc(Cl)c(C(F)(F)F)c3)cc2)ccn1 [Sorafenib] + Nc1nc2[nH]cc(CCc3ccc(C(=O)N[C@@H](CCC(=O)O)C(=O)O)cc3)c2c(=O)[nH]1 [Pemetrexed] (partner 0.2 µM)
Outline: as §1

[3] = compound: CNC(=O)c1cc(Oc2ccc(NC(=O)Nc3ccc(Cl)c(C(F)(F)F)c3)cc2)ccn1 [Sorafenib] + CS(=O)(=O)N1CCN(Cc2cc3nc(-c4cccc5[nH]ncc45)nc(N4CCOCC4)c3s2)CC1 [Pictilisib] (partner 1 µM)
Outline: as §1

[4] = compound: CNC(=O)c1cc(Oc2ccc(NC(=O)Nc3ccc(Cl)c(C(F)(F)F)c3)cc2)ccn1 [Sorafenib] + N=C(N)NC(=N)NCCc1ccccc1 [Phenformin] (partner 250 µM)
Outline: as §1

[5] = compound: CNC(=O)c1cc(Oc2ccc(NC(=O)Nc3ccc(Cl)c(C(F)(F)F)c3)cc2)ccn1 [Sorafenib] + CC(=O)Nc1cccc(-n2c(=O)n(C3CC3)c(=O)c3c(Nc4ccc(I)cc4F)n(C)c(=O)c(C)c32)c1 [Trametinib] (partner 0.02 µM)
Outline: as §1

| Cell Line | relative viability ([1]; first compound 0.08 µM) | relative viability ([1]; first compound 0.253 µM) | relative viability ([1]; first compound 2.53 µM) | relative viability ([1]; first compound 8 µM) | relative viability ([2]; first compound 0.08 µM) | relative viability ([2]; first compound 0.253 µM) | relative viability ([2]; first compound 2.53 µM) | relative viability ([2]; first compound 8 µM) | relative viability ([3]; first compound 0.08 µM) | relative viability ([3]; first compound 0.253 µM) | relative viability ([3]; first compound 2.53 µM) | relative viability ([3]; first compound 8 µM) | relative viability ([4]; first compound 0.08 µM) | relative viability ([4]; first compound 0.253 µM) | relative viability ([4]; first compound 2.53 µM) | relative viability ([4]; first compound 8 µM) | relative viability ([5]; first compound 0.08 µM) | relative viability ([5]; first compound 2.53 µM) | relative viability ([5]; first compound 8 µM) | relative viability ([5]; first compound 0.253 µM) |
| --- | --- | --- | --- | --- | --- | --- | --- | --- | --- | --- | --- | --- | --- | --- | --- | --- | --- | --- | --- | --- |
| EMC-BAC-2 | 1.12 | 0.982 | 1.15 | 1.06 | 0.438 | 0.389 | 0.41 | 0.516 | 0.54 | 0.6 | 0.549 | 0.472 | 0.504 | 0.464 | 0.507 | 0.316 | 0.86 | 0.7 | 0.44 |  |
| EPLC-272H | 0.247 | 0.176 |  | 0.209 | 0.412 | 0.295 | 0.318 | 0.542 | 0.393 | 0.286 | 0.45 | 0.299 | 0.402 | 0.264 | 0.294 | 0.315 | 0.298 | 0.27 | 0.205 | 0.274 |
| H3255 | 1.02 | 0.799 | 0.937 | 0.716 | 0.636 | 0.554 | 0.587 | 0.47 | 0.525 | 0.434 | 0.521 | 0.305 | 1.02 | 0.357 | 0.406 |  | 0.619 | 0.463 | 0.364 | 0.563 |
| HARA | 0.317 | 0.554 | 0.217 | 0.315 | 0.246 | 0.237 | 0.257 | 0.233 | 0.373 | 0.341 | 0.411 | 0.327 | 0.498 | 0.456 | 0.41 | 0.307 | 0.626 | 0.233 | 0.228 |  |
| HCC-15 | 1.18 | 1.17 | 1.05 | 0.951 | 0.253 | 0.211 | 0.22 | 0.145 | 0.729 | 0.683 |  | 0.602 | 0.501 | 0.403 | 0.442 | 0.212 | 0.411 | 0.396 | 0.3 | 0.354 |
| HCC-44 | 0.99 | 0.938 | 0.909 |  | 0.652 | 0.607 | 0.599 | 0.61 | 0.628 | 0.693 | 0.673 | 0.549 | 0.269 | 0.153 | 0.311 | 0.207 | 1.07 | 1.01 |  | 1.04 |
| HCC-78 | 0.846 | 0.496 | 0.863 | 0.768 | 0.936 | 0.879 | 0.847 | 0.888 | 0.254 | 0.229 | 0.268 | 0.217 | 0.812 | 0.598 |  | 0.713 | 0.807 | 0.897 | 0.523 | 0.646 |
| HCC-366 | 0.306 | 0.283 | 0.181 | 0.0837 | 0.158 | 0.124 | 0.127 | 0.174 | 0.208 | 0.118 | 0.138 | 0.151 | 0.598 | 0.507 | 0.539 | 0.559 | 0.403 | 0.331 | 0.226 | 0.436 |
